Columns and labels:
[1] = LC/MS detection of HV-3 in mouse brain and plasma; type: in vivo; details: LC/MS m/z 506.4
Description: The new figures above and related figure legends have all been added to the revised manuscript. The related discussion has been added on page 17 line 2 and line 5. The methods of ITC and immunoprecipitation with biotin-peptides have been added to the Method section (see pages 21-23) of […]
Comment 3: The in vivo use of TAT-tagged HV-3 peptide lacks essential PK/PD data. What is the PK/PD of the reagent with their osmotic pump delivery? The data in Supplemental Fig. 5B is simply unacceptable, with different background between control and HV-3, and with only a few cells shown and without any quantitation. Is there any long-term toxicity of such delivery? Did they measure adaptive immune response to the HV-3 peptide? And if there is such a response, do the immune reactions rather than inhibition of mHTT-VCP interactions underlying therapeutic effects? Response: For the analysis of PK/PD, we have to subcontract with bio-company. The cost will be a minimum of $80,000. Due to limited funds, we cannot afford such an expensive experiment. Working with the Mass Spectrometry Core Facility at Cleveland Clinic Foundation Research Center, we attempted to determine the concentration of HV-3 after treatment in mice by pump implantation. […]
by protein precipitation methods (see figure below). […]
proteins in mice after treatment. The data seem to be consistent with our findings that HV-3 binds to VCP. Because of current technical constraints to dissociate peptide from the binding proteins, we were not able to test the accurate concentration of the peptide HV-3 in brain tissues and plasma. Therefore, we […]
We would appreciate it if the reviewer could understand.
Based on the reviewer’s comment, in the revised manuscript, we removed the original supplemental […]
Regarding toxicity of HV3, we performed toxicity analysis of HV-3 in mice at Stanford University. […]
ions in positive electrospray ionization and the ion at 5 charged (m/z 506.4) has the highest intensity on the Shimadzu LC/MS 8050. (B) HV-3 at 5 charged (m/z 506.4) in positive electrospray ionization was monitored. […]

YAC128 mice = test: VCP mitochondrial level, YAC128 mouse striatum; type: in vivo; details: YAC128, 3 mg kg^−1 per day from 3 to 6 months versus TAT, n=6
Procedure: Cells were washed with cold PBS and incubated on ice for 30 min in a lysis buffer (250 mM sucrose, 20 mM HEPES-NaOH, pH 7.5, 10 mM KCl, 1.5 mM MgCl2, 1 mM EDTA, protease inhibitor cocktail and phosphatase inhibitor cocktail). Mouse brains were minced and homogenized in the lysis buffer and then placed on ice for 30 min. Collected cells or tissue were disrupted 20 times by repeated aspiration through a 25-gauge needle, followed by a 30-gauge needle. The homogenates were spun at 800 g for 10 min at 4 °C, and the resulting supernatants were spun at 10,000 g for 20 min at 4 °C. The pellets were washed with lysis buffer and spun at 10,000 g again for 20 min at 4 °C. The final pellets were suspended in lysis buffer containing 1% Triton X-100 and were mitochondrial-rich lysate fractions. The supernatant was centrifuged at 100,000 g, 4 °C, for 1 h, the pellets were suspended in lysis buffer containing 1% Triton X-100 as ER fractions. The final supernatant was cytosolic fractions. The mitochondrial proteins VDAC, the ER protein WFS1 and the cytosolic protein Enolase were used as loading controls for mitochondrial, ER and cytosolic fractions, respectively.
YAC128 (FVB-Tg(YAC128)53Hay/J, JAX stock number: 004938) breeders (FVB/N genetic background) were purchased from Jackson Laboratories. […]
Protein concentrations were determined by Bradford assay. […]

CSCC[C@H](NC(=O)[C@@H](NC(=O)[C@H](CC(C)C)NC(=O)[C@@H](NC(=O)[C@H](Cc1c[nH]cn1)NC(=O)CCCCCNC(=O)[C@H](CCCNC(=N)N)NC(=O)[C@H](CCCNC(=N)N)NC(=O)[C@H](CCCNC(=N)N)NC(=O)[C@H](CCC(N)=O)NC(=O)[C@H](CCCNC(=N)N)NC(=O)[C@H](CCCNC(=N)N)NC(=O)[C@H](CCCCN)NC(=O)[C@H](CCCCN)NC(=O)[C@H](CCCNC(=N)N)NC(=O)CNC(=O)[C@@H](N)Cc1ccc(O)cc1)C(C)C)C(C)C)C(=O)N[C@@H](CS)C(=O)N[C@@H](C)C(=O)N[C@H](C(N)=O)[C@@H](C)O [HV-3]
HV-3 in supernatant of plasma after protein precipitation ([1]; mice, pump implantation): not detectable
HV-3 in total brain lysates, plasma and precipitated plasma proteins ([1]; mice, pump implantation): can be detected
HV-3 in brain total lysates over time ([1]; mouse brain total lysates without protein precipitation, legend prints HV-3 (1000 nM)): day, one week and two weeks after treatment
VCP translocation to mitochondria in striatum (YAC128 mice): blocked VCP translocation to mitochondria

Reference: PMC5007466, “VCP recruitment to mitochondria causes mitophagy impairment and neurodegeneration in models of Huntington's disease” (Nature Communications, 2016)
